Data on 9 molecules can be found in ChEMBL document CHEMBL6071211, “Invention of VH-937, a Potent HIV-1 Maturation Inhibitor with the Potential for Infrequent Oral Dosing in Humans” (ACS Med Chem Lett, 2024).

Test [1] concerns Human immunodeficiency virus 1. Kind of test: Binding affinity to HIV1 Gag A364V mutant assessed as dissociation half life by virus-like particle (VLP) assay.
Test [2] relates to Human immunodeficiency virus 1. Kind of test: In vitro antiviral activity against fully replicating wild type HIV1 NL4-3 in presence of human serum. It counts as functional, organism-based. The note with it: Human immunodeficiency virus 1, NL4-3.
Test [3] has as its system Human immunodeficiency virus 1. Kind of test: In vitro antiviral activity against fully replicating wild type HIV1 NL4-3. It counts as functional, organism-based. The conditions noted are these: Human immunodeficiency virus 1, NL4-3.
Test [4] has as its system Human immunodeficiency virus 1. Kind of test: In vitro antiviral activity against fully replicating HIV1 NL4-3 harboring Gag A364V mutant. The note with it: Human immunodeficiency virus 1, NL4-3. It counts as functional, organism-based.
For test [5], the system named is Human immunodeficiency virus 1. Kind of test: In vitro antiviral activity against fully replicating HIV1 NL4-3 harboring Gag T332S/V362I/prR41G mutant. The format is functional, organism-based. The note with it: Human immunodeficiency virus 1, NL4-3.

Broadly, the EC50 is the concentration needed to bring the measured effect to its halfway point. With `C=C(C)[C@@H]1CC[C@]2(NCCN3CCS(=O)(=O)CC3)CC[C@]3(C)[C@H](CC[C@@H]4[C@@]5(C)CC=C(C6=CC[C@@](CF)(C(=O)O)CC6)C(C)(C)[C@@H]5CC[C@]43C)[C@@H]12` [FIPRAVIRIMAT], the T1/2 in test [1] is < 1 min. Also, the EC50 in test [2] is 13.9 nM.
Consider `C=C(C)[C@@H]1CC[C@]2(NCCN3CCS(=O)(=O)CC3)CC[C@]3(C)[C@H](CC[C@@H]4[C@@]5(C)CC=C(C6=CCC(COc7ccccc7Cl)(C(=O)O)CC6)C(C)(C)[C@@H]5CC[C@]43C)[C@@H]12` (mixture of isomers), for which the EC50 in test [3] is 9.7 nM; in test [2], 59.7 nM; in test [4], 20.1 nM; in test [5], 23.1 nM.
Regarding `C=C(C)[C@@H]1CC[C@]2(NCCN3CCS(=O)(=O)CC3)CC[C@]3(C)[C@H](CC[C@@H]4[C@@]5(C)CC=C(C6=CC[C@@](COc7ccccn7)(C(=O)O)CC6)C(C)(C)[C@@H]5CC[C@]43C)[C@@H]12`, the EC50 in test [3] was 3.5 nM; in test [2], 44.9 nM; in test [4], 7.2 nM; in test [5], 19.2 nM.
On the same counts, the results for `C=C(C)[C@@H]1CC[C@]2(NCCN3CCS(=O)(=O)CC3)CC[C@]3(C)[C@H](CC[C@@H]4[C@@]5(C)CC=C(C6=CCC(COc7cccc(C#N)n7)(C(=O)O)CC6)C(C)(C)[C@@H]5CC[C@]43C)[C@@H]12` (mixture of isomers) are 13.9 nM, 15.7 nM, 26.4 nM and 15.8 nM.
Take `C=C(C)[C@@H]1CC[C@]2(NCCN3CCS(=O)(=O)CC3)CC[C@]3(C)[C@H](CC[C@@H]4[C@@]5(C)CC=C(c6ccc(C(=O)O)cc6)C(C)(C)[C@@H]5CC[C@]43C)[C@@H]12`: in test [1], the T1/2 is < 1 min.
`C=C(C)[C@@H]1CC[C@]2(NCCN3CCS(=O)(=O)CC3)CC[C@]3(C)[C@H](CC[C@@H]4[C@@]5(C)CC=C(C6=CCC(COc7ccncc7)(C(=O)O)CC6)C(C)(C)[C@@H]5CC[C@]43C)[C@@H]12` (mixture of isomers): the EC50 in test [3] is 2.1 nM; in test [2], 33.3 nM; in test [4], 34.6 nM; in test [5], 14.2 nM.
The corresponding values for `C=C(C)[C@@H]1CC[C@]2(NCCN3CCS(=O)(=O)CC3)CC[C@]3(C)[C@H](CC[C@@H]4[C@@]5(C)CC=C(C6=CCC(COc7cccnc7)(C(=O)O)CC6)C(C)(C)[C@@H]5CC[C@]43C)[C@@H]12` (mixture of isomers) are 1.9 nM, 36.7 nM, 26.9 nM and 5.8 nM.
On to `C=C(C)[C@@H]1CC[C@]2(NCCN3CCS(=O)(=O)CC3)CC[C@]3(C)[C@H](CC[C@@H]4[C@@]5(C)CC=C(C6=CCC(COc7ncccn7)(C(=O)O)CC6)C(C)(C)[C@@H]5CC[C@]43C)[C@@H]12` (mixture of isomers), for which the EC50 amounted to 1.8 nM in test [3], 52.1 nM in test [2], 4.5 nM in test [4] and 12.6 nM in test [5].
With `C=C(C)[C@@H]1CC[C@]2(NCCN3CCS(=O)(=O)CC3)CC[C@]3(C)[C@H](CC[C@@H]4[C@@]5(C)CC=C(C6=CCC(COc7cccc(Cl)c7)(C(=O)O)CC6)C(C)(C)[C@@H]5CC[C@]43C)[C@@H]12` (mixture of isomers), the EC50 turned out to be 10.7 nM in test [3], 22 nM in test [2], 16.8 nM in test [4] and 49.2 nM in test [5].
